Legend:
Protein Kinase A (PKA) = assay: PKA RIKA of TBB-treated LNCaP cell extract; format: cell-based; conditions: TBB-treated vs vehicle-treated LNCaP lysate; RIKA gel with 50 μg/ml recombinant PKA
Description: FIG. 8A-8B, an equivalent mass of protein used for the RIKA shown in FIGS. 7A-7E was applied to a RIKA gel containing 50 μg/ml recombinant PKA. Arrows designates the activity of the endogenous kinase NM23 H1 which serves as an internal control. FIG. 8A is an autoradiogram of the PKA RIKA using the vehicle-treated lysates.

endogenous kinase NM23 = assay: Endogenous NM23 kinase signal (internal control) in the CK2α reverse in-gel kinase assay; conditions: 75 μM apigenin in assay buffer; LNCaP lysate
Description: 300 μg of LNCaP lysate was treated with bacteriophage λ phosphatase at 30° C. for 1 hour. The lysate was then precipitated with TCA, resolublized in IEF rehydration buffer and applied to CKα reverse in-gel kinase assay with 25 μg of recombinant human CK2α cast in the gel. 75 μM apigenin was added in the reverse in-gel kinase assay buffer and a parallel assay was performed with same volume of vehicle (DMSO) added to the reaction buffer.

Q: `Brc1c(Br)c(Br)c2[nH]nnc2c1Br` [TBB, 4,5,6,7 tetrabromobenzotriazole] was tested. Which “signal intensity of proteins detected in PKA RIKA, TBB-treated extract” value (Protein Kinase A (PKA)) did it give?
A: The value was “No increase”.

Q: How did the “effect on endogenous kinase NM23 signal” value (endogenous kinase NM23) turn out when `O=c1cc(-c2ccc(O)cc2)oc2cc(O)cc(O)c12` [Apigenin, apigenin] was run?
A: The value was “not affected”.

Source: US7666617B2, “Devices and methods for profiling enzyme substrates” (University of Maryland, Baltimore County, priority 2005, dated 2010)
